Data taken from patent publication US20260144796A1, “Compounds and Methods for Improving Health” (Acurx Pharmaceuticals, Inc., priority 2022, published 2026).
≈ marks a conversion by molar mass, not a printed value. Entries after “also recorded” stand apart in the source; their conditions may differ. Where two headings read alike, the source gives them in different places.

Experiments:
[1] = system: C. difficile CD 630 and R20291 cell morphology; assay: Morphology assessment by bright field microscopy; format: cell-based; settings: sub-inhibitory to MIC, 24 hours, listed as IBZ
Experimental: Cultures were then incubated in an anaerobic chamber at 37° C. in for 24 hrs. Pre-cultures were diluted to approximately 10^6CFU/mL (1:100) in fresh BHI comprising 0.25×MIC (0.5 ug/mL) of the appropriate antibiotic. Following incubation for 24 hrs, EVOS imaging system (Thermofisher) was used to take bright field pictures at 40× magnification.

[2] = system: Lachnoclostridium pacaense; assay: MIC determination, stool Firmicute isolates; format: cell-based; settings: Clostridium pacaense, N=1
[3] = system: C. difficile clinical isolates; settings: Clostridioides difficile, 24 h, agar dilution
Clostridium subterminale = assay: MIC determination, stool Firmicute isolates; format: cell-based; settings: N=1
Dorea longicatena = assay: MIC determination, stool Firmicute isolates; format: cell-based; settings: N=1
Longibaculum sp. = assay: MIC determination, stool Firmicute isolates; format: cell-based; settings: N=1
Clostridium butyricum = assay: microbe, parasite or virus in culture; format: cell-based
[4] = system: C. difficile infection (CDI); assay: Phase 2a CDI clinical trial, clinical outcome and safety; format: in vivo, human
Experimental: Phase 2a of this trial was an open label cohort of 10 subjects from study centers in the United States. In this cohort, 10 patients with diarrhea caused by mild or moderate C. difficile diagnosed via toxin EIA+ were treated with ibezapolstat 450 mg orally, twice daily for 10 days. […] Stool was collected during course of therapy and at follow up. Patient fecal samples were evaluated for C. difficile culture and microbiome changes. […] Favorable microbiome changes included overgrowth of Actinobacteria and Firmicutes phylum species while on therapy. These findings support that microbiome effects may be predictive of beneficial patient outcomes including low rates of recurrence. […] Safety evaluations included AE assessment, physical examination, vital signs, clinical laboratory tests (chemistry, hematology, and urinalysis), and electrocardiogramaty endpoints for all subjects were recorded including nature, frequency, and severity of AEs. AEs were assessed at each visit beginning from the time of enrollment and classified according to the Medical Dictionary for Regulatory Activities (MedDRA version 15.0). AE severity (mild, moderate, or severe) and causality (unrelated, possibly related, or probably related to the study medication) were assessed by the investigator at each site. Stool samples were cultured for C. difficile growth on a selective cycloserine-cefoxitin fructose agar (CCFA) at 37° C. under anaerobic conditions for 48 hours. (Gonzales-Luna A J, Carlson T J. Dotson K M, et al. […] Emerg Microbes Infect 2020; 9(1): 341-7). Isolates were determined to be C. difficile based on growth and morphology and confirmed by PCR for C. difficile toxin and tpi genes. C. difficile was strain typed using a PCR-based ribotyping method as previously described (Gonzales-Luna A J, Carlson T J, Dotson K M, et al. […] Emerg Microbes Infect 2020; 9(1):341-7). Minimum inhibitory concentrations (MICs) were determined for ibezapolstat by broth microdilution in 0.1% sodium taurocholate Brain Heart Infusion (BHI) media (Begum K, Basseres E, Miranda J. et al. […] Antimicrob Agents Chemother 2020; 64(8)). An intent-to-treat analysis of patients receiving at least one dose of ibezapolstat was conducted. Descriptive statistics were calculated for efficacy, safety/tolerability, and PK data generated using SAS version 9.4 software (SAS Institute, Inc Cary, NC, USA). Microbiome summary plots and data visualization was prepared using R software version 4.1.1 (R Core Team 2021, Vienna, Austria). (R Core Team (2013). R: A language and environment for statistical computing. R Foundation for Statistical Computing, Vienna, Austria.

Enterococcus durans = assay: MIC determination, stool Firmicute isolates; format: cell-based
Flavonifractor plautii = assay: MIC determination, stool Firmicute isolates; format: cell-based; settings: N=1
Clostridioides difficile = assay: MIC determination, C. difficile strains; format: cell-based
Excerpt: Fecal samples homogenized in reduced PBS (0.1 g stool/ml PBS) and serially diluted and plated directly onto YCFA7 agar supplemented with 0.002 g/ml each of glucose, maltose and cellobiose in large (13.5 cm diameter) petri dishes. Isolated colonies were identified by PCR amplification of the full-length 16S rRNA gene (using 7F (5′-[…]-3′) forward primer and 1510R (5′-[…]-3′) reverse primer followed by Sanger sequencing. Full-length 16S rRNA gene sequence reads were aligned using CLC Genomics (Qiagen) using the Ribosomal Database Project (RDP) as reference to classify reads to Operational Taxonomic Units (OTUs). The full-length 16S rRNA gene sequence of each species-level OTU was compared to the Ribosomal Database Project (RDP) reference database to assign taxonomic designations to the genus level and a BLAST search performed to identify any candidate novel species.
Strains plated onto blood agar (Hardy Diagnostics) with a 24-hour incubation at 37° C. in an anaerobic environment (Coy vinyl anaerobic chamber). After incubation, 3-5 well-isolated colonies were suspended into 5 mL of BHI broth (Criterion Media). The cultures were incubated in an anaerobic chamber for 24 hours to achieve a 0.5 McFarland Standard. Brucella agar with 5% hemin (5 ug/mL) (Sigma), vitamin K (10 ug/mL), and defibrinated sheep blood (Northeast Lab Services). The supplemented brucella agar was then utilized for two-fold serial dilution to create plates with IBZ concentration of 0.5 to 16 μg/mL plates. Plates were allowed to dry in a sterile location. After drying, the plates were covered with foil to prevent any photo-damage to the hemin and placed in the anaerobic chamber for 1 hour to reduce the media. The broth culture was then spotted onto the plates and covered with foil. Plates were allowed to dry completely before inverting them for incubation for 48 hours. Plates were analyzed and MIC recorded.

Question: Which results are given for O=c1[nH]c(NCc2ccc(Cl)c(Cl)c2)nc2ncn(CCN3CCOCC3)c12 [Ibezapolstat, 2-((3,4-dichlorobenzyl)amino)-7-(2-morpholinoethyl)-1,7-dihydro-6H-purin-6-one]?
Answer: cell morphology [1]: elongated cell phenotype; also recorded: dose-dependent effect on C. difficile cell length; MIC50 [2]: 25 µg/mL (≈ 59.1 µM); MIC ([3]; C. difficile clinical isolate MT 4802): 4 µg/mL (≈ 9.45 µM); MIC ([3]; C. difficile clinical isolate MT 5071): 8 µg/mL (≈ 18.9 µM); MIC ([3]; C. difficile clinical isolate MT 5342): 4 µg/mL (≈ 9.45 µM); MIC ([3]; C. difficile clinical isolate MT 5364): 4 µg/mL (≈ 9.45 µM); MIC ([3]; C. difficile clinical isolate MT 5382): 8 µg/mL (≈ 18.9 µM); MIC ([3]; C. difficile clinical isolate MT 5426): 8 µg/mL (≈ 18.9 µM); MIC ([3]; C. difficile clinical isolate MT 5493): 4 µg/mL (≈ 9.45 µM); MIC ([3]; C. difficile clinical isolate MT 5515): 8 µg/mL (≈ 18.9 µM); MIC ([3]; C. difficile clinical isolate MT 5529): 4 µg/mL (≈ 9.45 µM); MIC ([3]; C. difficile clinical isolate MT 5536): 8 µg/mL (≈ 18.9 µM); MIC ([3]; C. difficile clinical isolate SH 1132): 8 µg/mL (≈ 18.9 µM); MIC50 (Clostridium subterminale): 1 µg/mL (≈ 2.36 µM); MIC50 (Dorea longicatena): 3.12 µg/mL (≈ 7.38 µM); MIC50 (Longibaculum sp.): 50 µg/mL (≈ 118 µM); MIC50 (Clostridium butyricum): 12.5 µg/mL (≈ 29.5 µM); MIC (Clostridium butyricum; read-out: MIC Max, Clostridium butyricum, N=5): 100 µg/mL (≈ 236 µM); MIC (Clostridium butyricum; read-out: MIC Min, Clostridium butyricum, N=5): 1.5 µg/mL (≈ 3.54 µM); MIC (Clostridium butyricum; strain C. butyricum 1007): > 100 µg/mL; MIC (Clostridium butyricum; strain C. butyricum 1008): 1.5 µg/mL (≈ 3.54 µM); adverse event profile ([4]; 10 CDI patients, 450 mg orally twice daily 10 days): acceptable adverse event profile; clinical cure ([4]; 10 CDI patients, 450 mg orally twice daily 10 days, at day 12): 100%; sustained clinical cure ([4]; 10 CDI patients, 450 mg orally twice daily 10 days, at day 38): 100%; success rate ([4]; Phase 2a CDI clinical trial): 100%; eradication of colonic C. difficile ([4]; by day three of treatment): complete eradication; recurrences of infection ([4]; followed for recurrence for 28±2 days): no recurrences; MIC50 (Enterococcus durans; N=1): 100 µg/mL (≈ 236 µM); MIC (Enterococcus durans; N=1, read-out: MIC Max): 100 µg/mL (≈ 236 µM); MIC (Enterococcus durans; N=1, read-out: MIC Min): 100 µg/mL (≈ 236 µM); MIC50 (Flavonifractor plautii): 25 µg/mL (≈ 59.1 µM); MIC50 (Clostridioides difficile; Clostridioides difficile, N=6): 0.5 µg/mL (≈ 1.18 µM); MIC (Clostridioides difficile; Clostridioides difficile, N=6, read-out: MIC Max): 1 µg/mL (≈ 2.36 µM); MIC (Clostridioides difficile; Clostridioides difficile, N=6, read-out: MIC Min): 0.25 µg/mL (≈ 0.591 µM); MIC (Clostridioides difficile; Clostridioides difficile, strains of C. difficile, highly active): ≤ 2 µg/mL; MIC (Clostridioides difficile; strains of C. difficile, highly active): < 2 µg/mL
